Reference: US12433885B2, “Procaspase combination therapy for glioblastoma” (THE BOARD OF TRUSTEES OF THE UNIVERSITY OF ILLINOIS, priority 2012, dated 2025)

Assays:
9 L (rat glioma) cells = experiment: 9 L intracranial syngeneic rat glioma model, overall survival; assay type: in vivo; details: for Median survival: F344 rats, intracranial 9 L, PAC-1 50 mg/kg oral gavage days 0-4, TMZ 50 mg/kg oral gavage days 5-9, 8 rats per group
Experimental: 9 L (rat glioma) cells were intracranially implanted in rats. PAC-1 (50 mg/kg in water) was administered via oral gavage on days 0-4, and TMZ (50 mg/kg in water) was given via oral gavage on days 5-9; 8 rates per group.
The in vivo rat experiments employed 9 L cells, a very aggressive tumor model, implanted inter-cranially in rats in 3 treatment groups (PAC-1 alone, TMZ alone, and the combination of PAC-1 and TMZ) and one control group.
PAC-1 was suspended in water, and given to the rats via oral gavage at 50 mg/kg (a relatively low dose) for 5 days followed by five days of TMZ dosing.
PAC-1 (50 mg/kg in water) was administered via oral gavage on days 0-4, and TMZ (50 mg/kg in H2O) was given via oral gavage on days 5-9.
9 L gliosarcoma was maintained as a solid subcutaneous mass in the flanks of F344 rats. For intracranial implantation, the 9 L gliosarcoma tumor was surgically excised from the carrier animal and sliced into 1 mm^3 pieces at the time of implantation.
The animals were divided into the following four experimental groups with eight animals per group: (1) Control, (2) PAC-1 alone, (3) TMZ alone, and (4) PAC-1+TMZ. The control animals only received water. Two groups of animals from PAC-1 alone and PAC-1+TMZ received an oral gavage of PAC-1 suspended in water starting day 0 six hours post implantation. PAC-1 was administered only for 5 days from day 0 to day 4. The animals from TMZ alone and PAC-1+TMZ groups received 5 doses of TMZ in water administered orally from day 5 to day 9.

K7M2 cells = experiment: Mouse model of metastatic osteosarcoma, survival; assay type: in vivo; details: oral PAC-1 100 mg/kg in HPβCD and TMZ 50 mg/kg, sequential, daily for five consecutive days, from seven days after K7M2 injection; n=8 mice per group
Experimental: FIG. 4. PAC-1 synergizes with TMZ to extend survival in a mouse model of metastatic osteosarcoma. Seven days after injection of K7M2 cells, mice were treated orally with PAC-1 (100 mg/kg in HPβCD), TMZ (50 mg/kg […]), or a sequential treatment with each, daily for five consecutive days; n=8 mice per group.

9 L cell line = experiment: IC50 of PAC-1 with the 9 L cell line; assay type: cell-based; details: Rattus norvegicus; 72 hour experiment; initial assessment
Experimental: The initial assessment for the IC50 for PAC-1 with the 9 L cell line is about 7 μM (72 hour experiment).

[1] = Neurotoxicity of oral PAC-1 in mice; assay type: in vivo; details: given orally at up to 200 mg/kg

SMILES	Median survival (9 L (rat glioma) cells) [days]	Synergy with TMZ to extend survival (K7M2 cells)	IC50 (9 L cell line) [µM]	Neurotoxicity [1]	Neurotoxicity (9 L (rat glioma) cells; rats, PAC-1 50 mg/kg oral gavage for 5 days followed by five days of TMZ dosing)
Cn1nnc2c(C(N)=O)ncn2c1=O [TMZ, Temozolomide, reference compound]	20				
C=CCc1cccc(/C=N/NC(=O)CN2CCN(Cc3ccccc3)CC2)c1O [PAC-1, 2-(4-benzylpiperazin-1-yl)-N-[(2-hydroxy-3-prop-2-enyl-phenyl)methylideneamino]acetamide]	13.5	synergizes	~7	No neurotoxicity was observed	no neurotoxicity was observed
